Measurements published in patent US20260327221A1, “INHIBITORS OF CYCLIC GMP-AMP SYNTHASE AND USES THEREOF” (Ventus Therapeutics U.S., Inc., priority 2023, published 2026).

Target: hcGAS (Homo sapiens, UniProt Q8N884)
Assay: hcGAS LCMS assay (direct measurement of cGAMP production by LC/MS)
Assay type: biochemical
Conditions: 4 h incubation with enzyme and substrates; cGAMP production by LC/MS; class symbols; read-out: hcGAS LCMS IC50
Outline: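 Enzyme, substrates (ATP, GTP) and compound incubated 4 h, then quenched with acetonitrile/water containing 0.15 uM 13C/15N-labeled cGAMP internal standard. cGAMP formed quantified directly by LC/MS on HILIC amide column; IC50 values reported in potency bins.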

Chain of hcGAS (Q8N884 whole entry): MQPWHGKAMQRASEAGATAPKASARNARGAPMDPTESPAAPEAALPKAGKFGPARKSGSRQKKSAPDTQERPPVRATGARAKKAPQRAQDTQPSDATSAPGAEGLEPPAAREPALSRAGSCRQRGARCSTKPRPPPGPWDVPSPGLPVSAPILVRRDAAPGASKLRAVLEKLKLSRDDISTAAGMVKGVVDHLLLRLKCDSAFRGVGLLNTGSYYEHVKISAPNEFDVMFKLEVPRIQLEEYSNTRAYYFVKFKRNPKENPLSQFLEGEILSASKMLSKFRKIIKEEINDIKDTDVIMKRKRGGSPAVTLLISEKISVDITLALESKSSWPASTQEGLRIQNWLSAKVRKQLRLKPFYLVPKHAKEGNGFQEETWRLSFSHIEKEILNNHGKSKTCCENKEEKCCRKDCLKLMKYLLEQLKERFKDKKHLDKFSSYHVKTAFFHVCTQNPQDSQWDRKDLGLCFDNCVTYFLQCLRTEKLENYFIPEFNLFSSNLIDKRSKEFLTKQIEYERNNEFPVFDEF

| Structure (SMILES) | IC50 [nM] |
| --- | --- |
| COc1cccc(OC)c1-c1cc(C(=O)Nc2nnc(-n3nccc3N)s2)oc(=O)c1OCCCN1CCSCC1 [Compound 88, N-(5-(5-amino-1H-pyrazol-1-yl)-1,3,4-thiadiazol-2-yl)-4-(2,6-dimethoxyphenyl)-2-oxo-3-(3-thiomorpholinopropoxy)-2H-pyran-6-carboxamide] | 0.5 to 1 |
| COc1cccc(OC)c1-c1cc(C(=O)Nc2nnc(-n3nccc3N)s2)oc(=O)c1OC1CC(O)C1 (single isomer, unassigned) [Compound 57A, N-(5-(5-amino-1H-pyrazol-1-yl)-1,3,4-thiadiazol-2-yl)-4-(2,6-dimethoxyphenyl)-3-((1,3-trans)-3-hydroxycyclobutoxy)-2-oxo-2H-pyran-6-carboxamide] | 0.5 to 1 |
| COc1cccc(OC)c1-c1cc(C(=O)Nc2nnc(-n3nccc3N)s2)oc(=O)c1OC[C@H](C)O [Compound 46B, (S)—N-(5-(5-amino-1H-pyrazol-1-yl)-1,3,4-thiadiazol-2-yl)-4-(2,6-dimethoxyphenyl)-3-(2-hydroxypropoxy)-2-oxo-2H-pyran-6-carboxamide] | < 0.5 |
| COc1cccc(OC)c1-c1cc(C(=O)Nc2nnc(-n3nccc3N)s2)oc(=O)c1OC[C@@H](C)OC [Compound 54, (R)-N-(5-(5-amino-1H-pyrazol-1-yl)-1,3,4-thiadiazol-2-yl)-4-(2,6-dimethoxyphenyl)-3-(2-methoxypropoxy)-2-oxo-2H-pyran-6-carboxamide] | 0.5 to 1 |
| COC[C@H](CO)Oc1c(-c2c(OC)cccc2OC)cc(C(=O)Nc2nnc(-n3nccc3N)s2)oc1=O [Compound 62A*, (S)—N-(5-(5-amino-1H-pyrazol-1-yl)-1,3,4-thiadiazol-2-yl)-4-(2,6-dimethoxyphenyl)-3-((1-hydroxy-3-methoxypropan-2-yl)oxy)-2-oxo-2H-pyran-6-carboxamide] | 0.5 to 1 |
| COc1cccc(OC)c1-c1cc(C(=O)Nc2nnc(-n3nccc3N)s2)oc(=O)c1OCCN1CCSCC1=O [Compound 75, N-(5-(5-amino-1H-pyrazol-1-yl)-1,3,4-thiadiazol-2-yl)-4-(2,6-dimethoxyphenyl)-2-oxo-3-(2-(3-oxothiomorpholino)ethoxy)-2H-pyran-6-carboxamide] | 0.5 to 1 |
| COc1cccc(OC)c1-c1cc(C(=O)Nc2nnc(-n3nccc3N)s2)oc(=O)c1OCCOCCO [Compound 68, N-(5-(5-amino-1H-pyrazol-1-yl)-1,3,4-thiadiazol-2-yl)-4-(2,6-dimethoxyphenyl)-3-(2-(2-hydroxyethoxy)ethoxy)-2-oxo-2H-pyran-6-carboxamide] | < 0.5 |
| COCCOc1c(-c2c(F)cccc2OC)cc(C(=O)Nc2nnc(-n3nccc3N)s2)oc1=O [Compound 13, N-(5-(5-amino-1H-pyrazol-1-yl)-1,3,4-thiadiazol-2-yl)-4-(2-fluoro-6-methoxyphenyl)-3-(2-methoxyethoxy)-2-oxo-2H-pyran-6-carboxamide] | 0.5 to 1 |
| COc1cccc(OC)c1-c1cc(C(=O)Nc2nnc(-n3nccc3N)s2)oc(=O)c1OC[C@H]1CCCO1 [56B*, (R)-N-(5-(5-amino-1H-pyrazol-1-yl)-1,3,4-thiadiazol-2-yl)-4-(2,6-dimethoxyphenyl)-2-oxo-3-((tetrahydrofuran-2-yl)methoxy)-2H-pyran-6-carboxamide] | 0.5 to 1 |
| COCCOc1c(-c2ncccc2OC)cc(C(=O)Nc2nnc(-n3nccc3C)s2)oc1=O [Compound 4, 3-(2-methoxyethoxy)-4-(3-methoxypyridin-2-yl)-N-(5-(5-methyl-1H-pyrazol-1-yl)-1,3,4-thiadiazol-2-yl)-2-oxo-2H-pyran-6-carboxamide] | 5 to 20 |
| COc1cccc(OC)c1-c1cc(C(=O)Nc2nnc(-n3nccc3N)s2)oc(=O)c1OCCN1CC2(CCS2)C1 [Compound 72, 3-(2-(1-thia-6-azaspiro[3.3]heptan-6-yl)ethoxy)-N-(5-(5-amino-1H-pyrazol-1-yl)-1,3,4-thiadiazol-2-yl)-4-(2,6-dimethoxyphenyl)-2-oxo-2H-pyran-6-carboxamide] | 0.5 to 1 |
| COc1cccc(OC)c1-c1cc(C(=O)Nc2nnc(-n3nccc3N)s2)oc(=O)c1O[C@H]1CCOC1 [52A*, (S)-N-(5-(5-amino-1H-pyrazol-1-yl)-1,3,4-thiadiazol-2-yl)-4-(2,6-dimethoxyphenyl)-2-oxo-3-((tetrahydrofuran-3-yl)oxy)-2H-pyran-6-carboxamide] | < 0.5 |
| COc1cccc(OC)c1-c1cc(C(=O)Nc2nnc(-n3nccc3N)s2)oc(=O)c1OC[C@@H](CO)N1CCSCC1 [79A*, (R)-N-(5-(5-amino-1H-pyrazol-1-yl)-1,3,4-thiadiazol-2-yl)-4-(2,6-dimethoxyphenyl)-3-(3-hydroxy-2-thiomorpholinopropoxy)-2-oxo-2H-pyran-6-carboxamide] | 1 to 5 |
| COc1c(-c2ccccc2S(C)(=O)=O)cc(C(=O)Nc2nnc(-n3nccc3C)s2)oc1=O [Compound 2, 3-methoxy-N-(5-(5-methyl-1H-pyrazol-1-yl)-1,3,4-thiadiazol-2-yl)-4-(2-(methylsulfonyl)phenyl)-2-oxo-2H-pyran-6-carboxamide] | 5 to 20 |
| COc1cccc(OC)c1-c1cc(C(=O)Nc2nnc(-n3nccc3N)s2)oc(=O)c1OCCN1CCCSCC1 [Compound 89, 3-(2-(1,4-thiazepan-4-yl)ethoxy)-N-(5-(5-amino-1H-pyrazol-1-yl)-1,3,4-thiadiazol-2-yl)-4-(2,6-dimethoxyphenyl)-2-oxo-2H-pyran-6-carboxamide] | 0.5 to 1 |
| COc1cccc(OC)c1-c1cc(C(=O)Nc2nnc(-n3nccc3N)s2)oc(=O)c1O[C@H]1CCC[C@@H]1O (single isomer, unassigned) [71A*] | 0.5 to 1 |
| COCCOc1c(-c2c(C)cccc2OC)cc(C(=O)Nc2nnc(-n3nccc3N)s2)oc1=O [Compound 11, N-(5-(5-amino-1H-pyrazol-1-yl)-1,3,4-thiadiazol-2-yl)-4-(2-methoxy-6-methylphenyl)-3-(2-methoxyethoxy)-2-oxo-2H-pyran-6-carboxamide] | 0.5 to 1 |
| COc1cccc(OC)c1-c1cc(C(=O)Nc2nnc(-n3nccc3N)s2)oc(=O)c1O[C@@H](CO)C1CC1 [106B*, (R)-N-(5-(5-amino-1H-pyrazol-1-yl)-1,3,4-thiadiazol-2-yl)-3-(1-cyclopropyl-2-hydroxyethoxy)-4-(2,6-dimethoxyphenyl)-2-oxo-2H-pyran-6-carboxamide] | 1 to 5 |
| COCCOc1c(-c2c(OC)cccc2OCCC#N)cc(C(=O)Nc2nnc(-n3nccc3N)s2)oc1=O [Compound 67, N-(5-(5-amino-1H-pyrazol-1-yl)-1,3,4-thiadiazol-2-yl)-4-(2-(2-cyanoethoxy)-6-methoxyphenyl)-3-(2-methoxyethoxy)-2-oxo-2H-pyran-6-carboxamide] | 1 to 5 |
| COCCCOc1c(-c2ncccc2OC)cc(C(=O)Nc2nnc(-n3nccc3N)s2)oc1=O [Compound 21, N-(5-(5-amino-1H-pyrazol-1-yl)-1,3,4-thiadiazol-2-yl)-3-(3-methoxypropoxy)-4-(3-methoxypyridin-2-yl)-2-oxo-2H-pyran-6-carboxamide] | 1 to 5 |
| COc1cccc(OC)c1-c1cc(C(=O)Nc2nnc(-n3nccc3N)s2)oc(=O)c1O[C@@H]1CC[C@@H](O)C1 (relative stereo) [64A*/B*] | 0.5 to 1 |
| COc1cccnc1-c1cc(C(=O)Nc2nnc(-n3nccc3N)s2)oc(=O)c1OCC(C)(C)CO [Compound 33, N-(5-(5-amino-1H-pyrazol-1-yl)-1,3,4-thiadiazol-2-yl)-3-(3-hydroxy-2,2-dimethylpropoxy)-4-(3-methoxypyridin-2-yl)-2-oxo-2H-pyran-6-carboxamide] | 1 to 5 |
| COc1cccc(OC)c1-c1cc(C(=O)Nc2nnc(-n3nccc3N)s2)oc(=O)c1O[C@@H](C)CO (single isomer, unassigned) [Compound 55A*] | 0.5 to 1 |
| COCCOc1c(-c2ncccc2C#N)cc(C(=O)Nc2nnc(-n3nccc3C)s2)oc1=O [Compound 7, 4-(3-cyanopyridin-2-yl)-3-(2-methoxyethoxy)-N-(5-(5-methyl-1H-pyrazol-1-yl)-1,3,4-thiadiazol-2-yl)-2-oxo-2H-pyran-6-carboxamide] | 1 to 5 |
